Experimental findings from paper PMC8621172, “Manipulating Estrogenic/Anti-Estrogenic Activity of Triphenylethylenes towards Development of Novel Anti-Neoplastic SERMs” (International Journal of Molecular Sciences, 2021) are described below.

Values joined by “and” are separate entries in the source; they are usually repeats but may differ in a detail not shown here. Identical values can stand only once.

The target in one assay is T1, human ERα (Homo sapiens, UniProt P03372).
T1 construct: host or cells: Saccharomyces cerevisiae
T1 sequence (P03372 1-595): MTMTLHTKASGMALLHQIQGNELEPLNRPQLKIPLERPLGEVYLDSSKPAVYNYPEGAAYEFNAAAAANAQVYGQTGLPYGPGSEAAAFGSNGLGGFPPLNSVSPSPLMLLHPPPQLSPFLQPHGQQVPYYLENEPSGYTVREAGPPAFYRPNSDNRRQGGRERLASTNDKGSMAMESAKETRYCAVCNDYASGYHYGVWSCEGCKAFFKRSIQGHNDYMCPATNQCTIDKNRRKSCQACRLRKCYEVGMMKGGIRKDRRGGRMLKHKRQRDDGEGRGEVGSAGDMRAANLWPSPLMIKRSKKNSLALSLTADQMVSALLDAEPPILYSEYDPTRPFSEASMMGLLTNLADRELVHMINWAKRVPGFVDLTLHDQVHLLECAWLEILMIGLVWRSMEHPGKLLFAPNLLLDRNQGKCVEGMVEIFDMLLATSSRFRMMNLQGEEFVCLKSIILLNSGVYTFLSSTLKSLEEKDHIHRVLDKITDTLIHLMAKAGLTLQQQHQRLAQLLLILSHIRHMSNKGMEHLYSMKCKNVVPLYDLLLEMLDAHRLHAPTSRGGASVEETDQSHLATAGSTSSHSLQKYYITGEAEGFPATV
Description: Yeast estrogen screen (YES) assay, agonistic activity (β-galactosidase reporter). Particulars: triplicates; for Estrogenic Activity (relative β-galactosidase activity): compounds at 1 µM, compared to DMSO (set as 1); for EC50: YES assay. The format is cell-based. As to the method:
All synthesized compounds were tested for their relative activity in β-galactosidase in a yeast estrogen screen (YES) assay. Compounds were tested for their relative estrogenic/anti-estrogenic activities in comparison to positive and negative controls, respectively. YES assay is a gene reporter assay where the DNA sequence of human ERα is integrated into the yeast genome completed with an expression plasmid carrying estrogen response elements (ERE) in the promoter controlling the expression of the reporter gene lacZ (encoding the enzyme β-galactosidase). In the presence of estrogenic compounds, β-galactosidase is synthesized and secreted into the medium, where it converts the chromogenic substrate chlorophenol red-β-D-galactopyranoside (CRPG) from a yellow to a red product, whose absorbance is measured. […] Therefore, we decided to test the novel compounds in an organ-specific in vitro model using the human Ishikawa endometrial adenocarcinoma cell line.
All synthesized compounds were tested for their relative β-galactosidase activity in a yeast estrogen screen (YES) assay at a concentration of 1 µM using DMSO as control (set as 1).
The yeast estrogen receptor assay was supplied by Dr. J.P. Sumpter (Brunel University, Uxbridge, UK) and was used to determine the relative transactivation activity of the human ERα as formerly described. Briefly, Saccharomyces cerevisiae stably transfected with a human ERα and an estrogen-responsive element fused to the reporter gene lacZ encoding for β-galactosidase were treated with the test substances for about 48 h. The β-galactosidase enzymatic activity was measured in a colorimetric assay using a microplate photometer by hydrolysis of the substrate chlorophenol red β-D-galactopyranoside (Roche Diagnostics, Mannheim, Germany), which leads to the formation of chlorophenol red. This can be measured as an increased absorption at 540 nm. All compounds were diluted in DMSO. […] All compounds were tested in technical quadruplicates and biological triplicates. Statistical analysis was performed by analysis of variance (ANOVA) and Tukey’s post-hoc test with the significance level of p < 0.05.

For another assay, the system named is 60 NCI tumor cell lines. Description: NCI-60 single-dose growth inhibition screen (SRB). The settings on record: for anti-proliferative activity (in words): 10 µM, NCI-60 panel and MCF-7; for inhibition at 10 µM: Homo sapiens, mean over 60 NCI tumor cell lines. The format is cell-based, human. As to the method:
The anti-proliferative effects of the novel analogs were tested in vitro by the National Cancer Institute (NCI) on a panel of 60 human tumor cell lines at 10 µM. Compounds that elicited mean growth inhibition ≥50% were selected by the NCI for 5-dose testing.
Compounds were submitted to the Developmental Therapeutics Program (DTP) of the National Cancer Institute (NCI). The program uses a panel of 60 human tumor cell lines representing nine tissue types, including leukemia, non-small cell lung cancer (NSCLC), melanoma, colon cancer, ovarian cancer, CNS cancer, renal cancer, prostate cancer, and breast cancer, to screen for potential new anti-cancer agents. […] Primary screening of synthesized compounds was performed by testing a single high dose of 10 µM in the full NCI-60 panel. The percent growth of treated cells relative to the no-drug control and relative to the time zero number of cells was measured, and a mean graph was provided. The percentage inhibition was then calculated by subtracting the values obtained from 100.
All compounds were subjected to the NCI in vitro disease-oriented human cells screening panel assay. The human tumor cell lines of the cancer-screening panel are grown in RPMI 1640 medium containing 5% fetal bovine serum and 2 mM L-glutamine. For a typical screening experiment, cells are inoculated into 96-well microtiter plates in 100 μL at plating densities ranging from 5000 to 40,000 cells/well depending on the doubling time of individual cell lines. After cell inoculation, the microtiter plates are incubated at 37 °C, 5% CO2, 95% air, and 100% relative humidity for 24 h prior to the addition of experimental drugs. After 24 h, two plates of each cell line are fixed in situ with TCA to represent a measurement of the cell population for each cell line at the time of drug addition. Experimental drugs are solubilized in dimethyl sulfoxide at 400-fold the desired final maximum test concentration and stored frozen prior to use. At the time of drug addition, an aliquot of frozen concentrate is thawed and diluted to twice the desired final maximum test concentration with complete medium containing 50 μg/mL gentamicin. Additional four, 10-fold, or ½ log serial dilutions are made to provide a total of five drug concentrations plus control. Aliquots of 100 μL of these different drug dilutions are added to the appropriate microtiter wells already containing 100 μL of medium, resulting in the required final drug concentrations. Following drug addition, the plates are incubated for an additional 48 h at 37 °C, 5% CO2, 95% air, and 100% relative humidity. For adherent cells, the assay is terminated by the addition of cold TCA. Cells are fixed in situ by the gentle addition of 50 μL of cold 50% (w/v) TCA (final concentration, 10% TCA) and incubated for 60 min at 4 °C. The supernatant is discarded, and the plates are washed five times with tap water and air-dried. Sulforhodamine B (SRB) solution (100 μL) at 0.4% (w/v) in 1% acetic acid is added to each well, and plates are incubated for 10 min at room temperature. After staining, unbound dye is removed by washing five times with 1% acetic acid, and the plates are air-dried. Bound stain is subsequently solubilized with a 10 mM trizma base, and the absorbance is read on an automated plate reader at a wavelength of 515 nm. For suspension cells, the methodology is the same except that the assay is terminated by fixing settled cells at the bottom of the wells by gently adding 50 μL of 80% TCA (final concentration, 16% TCA). Compounds are screened at a dose of 10 µM, hits showing mean growth inhibition over 60 cell lines >50% are escalated for 5-dose screening assay.

The inhibition is the share of the control response that was lost under treatment. `COc1ccc(C(C)=C(c2ccc(Cl)cc2)c2ccc(OCCN3CCOCC3)cc2)cc1F` [Compound 18, E/Z-4-(2-{4-[1-(4-Chlorophenyl)-2-(3-fluoro-4-methoxyphenyl)-propenyl]-phenoxy}-ethyl)-morpholine]: the “Estrogenic Activity (relative β-galactosidase activity)” value at human ERα came to 1.76 ± 0.56. Besides, in the assay on 60 NCI tumor cell lines, the “anti-proliferative activity (in words)” value is “lacked anti-proliferative activity” and testing at 10 µM gave an inhibition of 4.23%.

The term EC50 denotes the midpoint of the concentration-response curve. Read a high EC50 as lower potency in that assay. On to `COc1ccc(C(C)=C(c2ccc(Cl)cc2)c2ccc(OCCN3CCCCCC3)cc2)cc1F` [Compound 19, E/Z-1-(2-{4-[1-(4-Chlorophenyl)-2-(3-fluoro-4-methoxyphenyl)-propenyl]-phenoxy}-ethyl)-azepane], for which, at human ERα, the EC50 turned out to be 407 ± 86 nM; the “Estrogenic Activity (relative β-galactosidase activity)” value is 3.22 and 3.22 ± 1.22. In the assay on 60 NCI tumor cell lines, this compound showed an inhibition at 10 µM of 60.8%.

Take `COc1ccc(C(C)=C(c2ccc(Cl)cc2)c2ccc(OCCN(C)C)cc2)cc1F` [Compound 20, E/Z-(2-{4-[1-(4-Chlorophenyl)-2-(3-fluoro-4-methoxyphenyl)-propenyl]-phenoxy}-ethyl)-dimethyl-amine]: the “Estrogenic Activity (relative β-galactosidase activity)” value on human ERα stood at 2.40 ± 0.64. The compound also had an inhibition at 10 µM in the assay on 60 NCI tumor cell lines of 47%.

Take `CCN(CC)CCOc1ccc(C(=C(C)c2ccc(OC)c(F)c2)c2ccc(Cl)cc2)cc1` [Compound 21, E/Z-(2-{4-[1-(4-Chlorophenyl)-2-(3-fluoro-4-methoxyphenyl)-propenyl]-phenoxy}-ethyl)-diethyl-amine]: at human ERα, the response was half-maximal at 735 ± 13 nM (EC50) and the “Estrogenic Activity (relative β-galactosidase activity)” value is recorded as 2.40 ± 0.77. Besides, testing at 10 µM in the assay with 60 NCI tumor cell lines gave an inhibition of 31.2%.

Take `COc1cc(C(C)=C(c2ccc(Cl)cc2)c2ccc(OCCCN(C)C)cc2)ccc1F` [Compound 22, E/Z-(3-{4-[1-(4-Chlorophenyl)-2-(4-fluoro-3-methoxyphenyl)-propenyl]-phenoxy}-propyl)-dimethyl-amine]: the “Estrogenic Activity (relative β-galactosidase activity)” value on human ERα amounted to 1.87 ± 0.74. Moreover, 10 µM produced 18.6% inhibition with 60 NCI tumor cell lines.

On to `COc1cc(C(C)=C(c2ccc(Cl)cc2)c2ccc(OCCN3CCCC3)cc2)ccc1F` [Compound 23, E/Z-1-(2-{4-[1-(4-Chlorophenyl)-2-(4-fluoro-3-methoxyphenyl)-propenyl]-phenoxy}-ethyl)-pyrrolidine], for which the “Estrogenic Activity (relative β-galactosidase activity)” value on human ERα worked out at 1.41 ± 1.01. For the same compound, the inhibition at 10 µM in the assay on 60 NCI tumor cell lines stood at 46.9%.

In the case of `COc1cc(C(C)=C(c2ccc(Cl)cc2)c2ccc(OCCN3CCCCC3)cc2)ccc1F` [Compound 24, E/Z-1-(2-{4-[1-(4-Chlorophenyl)-2-(4-fluoro-3-methoxyphenyl)-propenyl]-phenoxy}-ethyl)-piperidine], at human ERα, the “Estrogenic Activity (relative β-galactosidase activity)” value is reported as 1.19 ± 0.20. Besides, in the assay with 60 NCI tumor cell lines, testing at 10 µM gave an inhibition of 29.2%.

On to `COc1cc(C(C)=C(c2ccc(Cl)cc2)c2ccc(OCCN3CCOCC3)cc2)ccc1F` [Compound 25, E/Z-4-(2-{4-[1-(4-Chlorophenyl)-2-(4-fluoro-3-methoxyphenyl)-propenyl]-phenoxy}-ethyl)-morpholine], for which the “Estrogenic Activity (relative β-galactosidase activity)” value at human ERα came to 1.31 ± 0.30. Besides, in the assay on 60 NCI tumor cell lines, the “anti-proliferative activity (in words)” value is “lacked anti-proliferative activity” and testing at 10 µM gave an inhibition of 12.8%.

Consider `COc1cc(C(C)=C(c2ccc(Cl)cc2)c2ccc(OCCN3CCCCCC3)cc2)ccc1F` [Compound 26, E/Z-1-(2-{4-[1-(4-Chlorophenyl)-2-(4-fluoro-3-methoxyphenyl)-propenyl]-phenoxy}-ethyl)-azepane], for which the “Estrogenic Activity (relative β-galactosidase activity)” value on human ERα was 1.78 ± 0.64. Moreover, the inhibition at 10 µM in the assay on 60 NCI tumor cell lines is 28.3%.

Regarding `COc1cc(C(C)=C(c2ccc(Cl)cc2)c2ccc(OCCN(C)C)cc2)ccc1F` [Compound 27, E/Z-(2-{4-[1-(4-Chlorophenyl)-2-(4-fluoro-3-methoxyphenyl)-propenyl]-phenoxy}-ethyl)-dimethyl-amine], the “Estrogenic Activity (relative β-galactosidase activity)” value at human ERα is reported as 1.15 ± 0.17. Moreover, in the assay on 60 NCI tumor cell lines, testing at 10 µM gave an inhibition of 47.2%.

On to `CCN(CC)CCOc1ccc(C(=C(C)c2ccc(F)c(OC)c2)c2ccc(Cl)cc2)cc1` [Compound 28, E/Z-(2-{4-[1-(4-Chlorophenyl)-2-(4-fluoro-3-methoxyphenyl)-propenyl]-phenoxy}-ethyl)-diethyl-amine], for which the “Estrogenic Activity (relative β-galactosidase activity)” value on human ERα came to 1.37 ± 0.39. This compound yielded an inhibition at 10 µM in the assay on 60 NCI tumor cell lines of 92.3%.
